Tests used:
AML-193 = test: Incorporation of 3H-thymidine, AML-193; details: Homo sapiens, read-out: TdR IC50 AML-193 (nM)
ME 180 = test: Incorporation of 3H-thymidine, ME 180; format: cell-based; details: Homo sapiens, ME-180; 96 hours incubation, then 6 hours 3H-thymidine; read-out: TdR IC50 ME 180
RPMI 8226 = test: Incorporation of 3H-thymidine, RPMI 8226; format: cell-based; details: Homo sapiens, 96 hours incubation, then 6 hours 3H-thymidine, read-out: TdR IC50 RPMI 8226
RXRβ = target: T1, RXRβ (Mus musculus, UniProt P28704); test: Co-transfection assay, RXRβ agonist activity; format: cell-based; details: CV-1 cells, luciferase reporter, read-out: RXRβ Pot
T1 sequence (P28704 1-520): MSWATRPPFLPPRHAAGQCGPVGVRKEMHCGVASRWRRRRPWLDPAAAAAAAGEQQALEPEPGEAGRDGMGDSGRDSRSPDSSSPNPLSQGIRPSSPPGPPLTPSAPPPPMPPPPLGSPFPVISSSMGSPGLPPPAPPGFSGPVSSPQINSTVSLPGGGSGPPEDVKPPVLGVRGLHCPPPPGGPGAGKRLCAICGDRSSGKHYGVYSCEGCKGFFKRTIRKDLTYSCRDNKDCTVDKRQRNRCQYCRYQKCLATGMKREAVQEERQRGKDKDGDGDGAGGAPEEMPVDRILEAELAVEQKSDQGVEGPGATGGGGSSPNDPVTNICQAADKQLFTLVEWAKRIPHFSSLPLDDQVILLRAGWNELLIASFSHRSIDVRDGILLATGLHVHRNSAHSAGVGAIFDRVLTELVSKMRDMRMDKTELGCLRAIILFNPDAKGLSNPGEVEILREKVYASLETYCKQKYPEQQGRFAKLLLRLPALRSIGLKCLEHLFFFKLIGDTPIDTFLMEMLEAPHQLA

IC50 (AML-193)	IC50 (ME 180)	IC50 (RPMI 8226)	EC50 (RXRβ)	Compound
< 0.1 nM	0.9 nM	< 0.1 nM	6 nM	CC(/C=C/CC1(c2ccc3c(c2)C(C)(C)CCC3(C)C)CC1)=C\C(=O)O [Compound 101, (2E, 4E)-6-[1-(5,5,8,8-Tetramethyl-5,6,7,8-tetrahydronaphtha-len-2-yl)cyclopropanyl]-3-methyl hexadienoic acid]
–	–	–	22 nM	CC(/C=C/CC1(c2cc(C(C)(C)C)cc3c2CCC3(C)C)CC1)=C\C(=O)O [Compound 107, (2E, 4E)-6-[1-(6-t-butyl-1,1-dimethyl-indan-4-yl)-cyclopropyl]-3-methyl hexadienoic acid]

From patent publication US6005007A, “Retinoids, methods for their production and use” (priority 1997, dated 1999)
